Experimental data taken from patent US11071721B2, “Bicyclic amide compounds and methods of use thereof” (Genentech, Inc., priority 2016, dated 2021).

Target: human RIP1 kinase domain (2-375) (Homo sapiens (Human), UniProt Q13546)
Assay: RIP1 kinase inhibition assay (Transcreener ADP biochemical enzyme assay)
Conditions: Ki app (Morrison tight-binding fit); 50 nM enzyme, 50 uM ATP, 2 hours incubation, fluorescence polarization
Procedure: RIP1 Kinase Inhibition Assays (Biochemical Assay):
The compounds of the present invention were tested for their capacity to inhibit RIP K activity as described below.
Enzyme assay: The ability of the receptor interacting protein kinase (RIPK1) to catalyze the hydrolysis of adenosine-5′-triphosphate (ATP) is monitored using the Transcreener ADP (adenosine-5′-diphosphate) assay (BellBrook Labs). Purified human RIP1 kinase domain (2-375) (50 nM) derived from a baculovirus-infected insect cell expression system is incubated with test compounds for 2 hours in 50 mM Hepes buffer (pH 7.5) containing 30 mM MgCl2, 1 mM dithiothreitol, 50 uM ATP, 0.002% Brij-35, and 0.5% dimethyl sulfoxide (DMSO). Reactions are quenched by the addition of 1× Bell Brooks Stop buffer B (20 mM Hepes (ph7.5), 40 mM ethylenediaminetetraacetic acid and 0.02% Brij-35) containing an additional 12 mM EDTA and 55 ug/mL ADP2 antibody and 4 nM ADP-AlexaFluor® 633 tracer. The tracer bound to the antibody is displaced by the ADP generated during the RIP1K reaction, which causes a decrease in fluorescence polarization that is measured by laser excitation at 633 nm with a FP microplate reader M1000. Fractional activity was plotted against test article concentration. Using Genedata Screener software (Genedata; Basel, Switzerland), the data were fit to the tight-binding apparent inhibition constant (Ki^app) Morrison equation [Williams, J. W. and Morrison, J. F. (1979) The kinetics of reversible tight-binding inhibition. Methods Enzymol 63: 437-67]. The following equation was used to calculate fractional activity and Ki^app:
[formula] where [E]T and [I]T are the total concentrations of active enzyme and test article, respectively.

Sequence of human RIP1 kinase domain (2-375) (Q13546 2-375): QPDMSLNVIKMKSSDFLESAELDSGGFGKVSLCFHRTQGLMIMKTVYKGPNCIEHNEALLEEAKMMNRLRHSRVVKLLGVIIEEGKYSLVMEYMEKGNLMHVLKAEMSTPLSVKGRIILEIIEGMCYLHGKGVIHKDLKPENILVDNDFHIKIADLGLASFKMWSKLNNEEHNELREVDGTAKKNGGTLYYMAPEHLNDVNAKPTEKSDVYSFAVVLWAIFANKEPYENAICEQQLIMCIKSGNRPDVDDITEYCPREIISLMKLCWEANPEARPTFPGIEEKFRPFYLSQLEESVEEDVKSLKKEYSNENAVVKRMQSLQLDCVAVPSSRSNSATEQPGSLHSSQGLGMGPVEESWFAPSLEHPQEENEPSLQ

Ki [µM]	SMILES
0.29	O=C(c1nc2n(n1)[C@H](c1ccccc1)C[C@@H]2F)N1CCc2cnccc2C1 (racemic) [Example 75, 3.4-dihydro-1H-2,6-naphthyridin-2-yl-[rac-(5S,7S)-7-fluoro-5-phenyl-6,7-dihydro-5H-pyrrolo[1,2-b][1,2,4]triazol-2-yl]methanone]
0.061	O=C(c1nc2n(n1)[C@H](c1ccccc1)C[C@@H]2F)N1CCC(Oc2ccccc2)C1 (mixture of isomers) [Example 77, (3-phenoxypyrrolidin-1-yl)-[rac-(5S,7S)-7-fluoro-5-phenyl-6,7-dihydro-5H-pyrrolo[1,2-b][1,2,4]triazol-2-yl]methanone]
0.79	O=C(c1nc2n(n1)[C@H](c1ccccc1)C[C@@H]2F)N1CCCC(F)(F)C1 (racemic) [Example 79, (3,3-difluoro-1-piperidyl)-[rac-(5S,7S)-7-fluoro-5-phenyl-6,7-dihydro-5H-pyrrolo[1,2-b][1,2,4]triazol-2-yl] methanone]
0.1	O=C(c1nc2n(n1)[C@H](c1ccccc1)C[C@@H]2F)N1CCCn2nccc21 (racemic) [Example 80, 6,7-dihydro-5H-pyrazolo[1,5-a]pyrimidin-4-yl-[rac-(5S,7S)-7-fluoro-5-phenyl-6,7-dihydro-5H-pyrrolo[1,2-b][1,2,4]triazol-2-yl]methanone]
0.25	O=C(c1nc2n(n1)[C@H](c1ccccc1)C[C@@H]2F)N1CCC(C(F)(F)F)n2nccc21 (mixture of isomers) [Example 81, [rac-(5S,7S)-7-fluoro-5-phenyl-6,7-dihydro-5H-pyrrolo[1,2-b][1,2,4]triazol-2-yl]-[7-(trifluoromethyl)-6,7-dihydro-5H-pyrazolo [1,5-a]pyrimidin-4-yl]methanone]
0.45	O=C(c1nc2n(n1)[C@H](c1ccccc1)C[C@@H]2F)N1CCC[C@H]1C(F)(F)F (racemic) [Example 82, [rac-(5S,7S)-7-fluoro-5-phenyl-6,7-dihydro-5H-pyrrolo[1,2-b][1,2,4]triazol-2-yl]-[rac-(2S)-2-(trifluoromethyl)pyrrolidin-1-yl]methanone]
0.35	O=C(c1nc2n(n1)[C@H](c1ccccc1)C[C@@H]2F)N1CCC[C@@H]1C(F)(F)F (racemic) [Example 83, [rac-(5S,7S)-7-fluoro-5-phenyl-6,7-dihydro-5H-pyrrolo[1,2-b][1,2,4]triazol-2-yl]-[rac-(2R)-2-(trifluoromethyl)pyrrolidin-1-yl]methanone]
0.3	O=C(c1nc2n(n1)[C@H](c1ccccc1)C[C@@H]2F)N1CCCC1C(F)(F)F (mixture of isomers) [Example 84, [rac-(5S,7S)-7-fluoro-5-phenyl-6,7-dihydro-5H-pyrrolo[1,2-b][1,2,4]triazol-2-yl]-[2-(trifluoromethyl)pyrrolidin-1-yl]methanone]
0.33	C[C@H]1[C@H](C(F)(F)F)CCN1C(=O)c1nc2n(n1)[C@H](c1ccccc1)C[C@@H]2F (racemic) [Example 85, [rac-(5S,7S)-7-fluoro-5-phenyl-6,7-dihydro-5H-pyrrolo[1,2-b][1,2,4]triazol-2-yl]-[rac-(2S,3R)-2-methyl-3-(trifluoromethyl)pyrrolidin-1-yl]methanone]

Further lines, the compound ahead of its results:

SMILES	Ki [µM]
O=C(c1nc2n(n1)[C@H](c1ccccc1)C[C@@H]2F)N1CC[C@@H]1C(F)F (racemic) [Example 53, [rac-(2R)-2-(difluoromethyl)azetidin-1-yl]-[rac-(5S,7S)-7-fluoro-5-phenyl-6,7-dihydro-5H-pyrrolo[1,2-b][1,2,4]triazol-2-yl]methanone]	0.009
COCCN(CC(F)(F)F)C(=O)c1nc2n(n1)[C@H](c1ccccc1)C[C@@H]2F (racemic) [Example 55, rac-(5S,7S)-7-fluoro-N-(2-methoxyethyl)-5-phenyl-N-(2,2,2-trifluoroethyl)-6,7-dihydro-5H-pyrrolo[1,2-b][1,2,4]triazole-2-carboxamide]	3.9
COCCN(CC(F)F)C(=O)c1nc2n(n1)[C@@H](c1ccccc1)C[C@H]2F (racemic) [Example 56, rac-(5R,7R)-N-(2,2-difluoroethyl)-7-fluoro-N-(2-methoxyethyl)-5-phenyl-6,7-dihydro-5H-pyrrolo[1,2-b[[1,2,4]triazole-2-carboxamide]	0.52
O=C(c1nc2n(n1)[C@H](c1ccccc1)C[C@@H]2F)N(CC(F)(F)F)C1COC1 (racemic) [Example 57, rac-(5S,7S)-7-fluoro-N-(oxetan-3-yl)-5-phenyl-N-(2,2,2-trifluoroethyl)-6,7-dihydro-5H-pyrrolo[1,2-b][1,2,4]triazole-2-carboxamide]	0.51
O=C(c1nc2n(n1)[C@H](c1ccccc1)C[C@@H]2F)N(CC(F)F)C1CC1 (racemic) [Example 58, rac-(5S,7S)-N-cyclopropyl-N-(2,2-difluoroethyl)-7-fluoro-5-phenyl-6,7-dihydro-5H-pyrrolo[1,2-b][1,2,4]triazole-2-carboxamide]	0.57
O=C(c1nc2n(n1)[C@H](c1ccccc1)C[C@@H]2F)N(CC(F)(F)F)C1CC1 (racemic) [Example 59, rac-(5S,7S)-N-cyclopropyl-7-fluoro-5-phenyl-N-(2,2,2-trifluoroethyl)-6,7-dihydro-5H-pyrrolo[1,2-b][1,2,4|]triazole-2-carboxamide]	2.2
O=C(c1nc2n(n1)[C@H](c1ccccc1)C[C@@H]2F)N1CCC1C(F)F (mixture of isomers) [Example 60, [2-(difluoromethyl)azetidin-1-yl]-[rac-(5S,7S)-7-fluoro-5-phenyl-6,7-dihydro-5H-pyrrolo[1,2-b][1,2,4]triazol-2-yl]methanone]	0.017
O=C(c1nc2n(n1)[C@H](c1ccccc1)C[C@@H]2F)N(C1CC1)C1CC1 (racemic) [Example 61, rac-(5S,7S)-N,N-dicyclopropyl-7-fluoro-5-phenyl-6,7-dihydro-5H-pyrrolo[1,2-b] [1,2,4]triazole-2-carboxamide]	3.2
CC1CN(C(=O)c2nc3n(n2)[C@H](c2ccccc2)C[C@@H]3F)Cc2ccnn21 (mixture of isomers) [Example 62, (7-methyl-6,7-dihydro-4H-pyrazolo[1,5-a]pyrazin-5-yl)-[rac-(5S,7S)-7-fluoro-5-phenyl-6,7-dihydro-5H-pyrrolo[1,2-b][1,2,4]triazol-2-yl]methanone]	0.13
Cc1cc2n(n1)CCN(C(=O)c1nc3n(n1)[C@H](c1ccccc1)C[C@@H]3F)C2 (racemic) [Example 63, (2-methyl-6,7-dihydro-4H-pyrazolo[1,5-a]pyrazin-5-yl)-[rac-(5S,7S)-7-fluoro-5-phenyl-6,7-dihydro-5H-pyrrolo[1,2-b][1,2,4]triazol-2-yl]methanone]	2.3
O=C(c1nc2n(n1)[C@@H](c1ccccc1)C[C@H]2F)N1CCC[C@H]1C(F)F (racemic) [Example 64, [rac-(2S)-2-(difluoromethyl)pyrrolidin-1-yl]-[rac-(5R,7R)-7-fluoro-5-phenyl-6,7-dihydro-5H-pyrrolo[1,2-b][1,2,4]triazol-2-yl]methanone]	0.004
O=C(c1nc2n(n1)[C@H](c1ccccc1)C[C@@H]2F)N1CCn2ccnc2C1 (racemic) [Example 68, 6,8-dihydro-5H-imidazo[1,2-a]pyrazin-7-yl-[rac-(5S,7S)-7-fluoro-5-phenyl-6,7-dihydro-5H-pyrrolo[1,2-b][1,2,4]triazol-2-yl]methanone]	0.049
C[C@@H]1C[C@H](F)CN1C(=O)c1nc2n(n1)[C@H](c1ccccc1)C[C@@H]2F (racemic) [Example 70, [rac-(2R,4S)-4-fluoro-2-methyl-pyrrolidin-1-yl]-[rac-(5S,7S)-7-fluoro-5-phenyl-6,7-dihydro-5H-pyrrolo[1,2-b] [1,2,4]triazol-2-yl]methanone]	0.15
O=C(c1nc2n(n1)[C@H](c1ccccc1)C[C@@H]2F)N1CCC[C@@H]1CO (racemic) [Example 71, [rac-(5S,7S)-7-fluoro-5-phenyl-6,7-dihydro-5H-pyrrolo[1,2-b][1,2,4]triazol-2-yl]-[rac-(2R)-2-(hydroxymethyl)pyrrolidin-1-yl]methanone]	0.69
O=C(c1nc2n(n1)[C@H](c1ccccc1)C[C@@H]2F)N1CC(F)(F)CC1CO (mixture of isomers) [Example 72, [4,4-difluoro-2-(hydroxymethyl)pyrrolodin-1-yl]-[rac-(5S,7S)-7-fluoro-5-phenyl-6,7-dihydro-5H-pyrrolo[1,2-b] [1,2,4]triazol-2-yl]methanone]	3.9
O=C(c1nc2n(n1)[C@H](c1ccccc1)C[C@@H]2F)N1CC(F)(F)C[C@H]1CF (racemic) [Example 73, [rac-(2S)-4,4-difluoro-2-(fluoromethyl)pyrrolidin-1-yl]-[rac-(5S,7S)-7-fluoro-5-phenyl-6,7-dihydro-5H-pyrrolo[1,2-b] [1,2,4]triazol-2-yl]methanone]	0.082
O=C(c1nc2n(n1)[C@H](c1ccccc1)C[C@@H]2F)N1CCCC1C(F)F (mixture of isomers) [Example 78, [2-(difluoromethyl)pyrrolidin-1-yl]-[rac-(5S, 7S)-7-fluoro-5-phenyl-6,7-dihydro-5H-pyrrolo[1,2-b][1,2,4]triazol-2-yl]methanone]	0.06
